Reference: patent US10344019B2 (priority 2010, dated 2019)
Like-named read-outs stand apart in the source and are kept apart here.

Columns and labels:
Type in all cases: cell-based
[1] = test system: HCV 1a RLuc cells (dicistronic genotype 1a H77 replicon, RLuc reporter); assay: microbe, parasite or virus in culture; details: Hepatitis C virus, read-out: 1a
Summary of the method: (§1)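 Replicons used: genotype 1b Con1, 1a H77, 2a JFH-1, and a 2a JFH-1 chimera with J6-strain NS5A (M31 present), all dicistronic.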

[2] = test system: HCV 3a RLuc cells (NS5A chimeric genotype 1b Con1 replicon with consensus genotype 3a NS5A gene); assay: microbe, parasite or virus in culture; details: Hepatitis C virus
Summary of the method: (§2)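 Replicon cells stably carrying the listed RLuc-encoding dicistronic replicons were seeded and treated with DMSO serial dilutions of compound (10 mM stocks) diluted into culture medium. After 72 h, cells were lysed and Renilla luciferase activity measured. EC50 was derived by non-linear regression.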

[3] = test system: HCV 2b Rluc cells (NS5A chimeric genotype 2a JFH-1 replicon with genotype 2b MD2b-1 NS5A gene, M31 present); assay: microbe, parasite or virus in culture; details: Hepatitis C virus, read-out: 2b
Summary of the method: as §2

[4] = test system: HCV 2a JFH-1 Rluc cells (dicistronic genotype 2a JFH-1 replicon, RLuc reporter); assay: microbe, parasite or virus in culture; details: Hepatitis C virus, read-out: 2a JFH
Summary of the method: as §1

[5] = test system: Q30R in genotype 1a NS5A, 1a Rluc replicon transfected into Huh-7 cured-51 cells; assay: HCV replicon assay, resistance mutant 1a Q30R; details: Hepatitis C virus, Huh-7, read-out: 1a Q30R
Experimental: Evaluation of cell-based anti-HCV activity: Antiviral potency (EC50) was determined using a Renilla luciferase (RLuc)-based HCV replicon reporter assay. To perform the assay for genotype 1 and 2a JFH-1, HCV 1b RLuc cells (harboring a dicistronic genotype 1b Con1 replicon that encodes a RLuc reporter), or HCV 1a RLuc cells (harboring a dicistronic genotype 1a H77 replicon that encodes a RLuc reporter), or HCV 2a JFH-1 Rluc cells (harboring a dicistronic genotype 2a JFH-1 replicon that encodes a RLuc reporter) were dispensed into 384-well plates. To perform the assay for genotype 2a (with M31 present) or 2b, HCV 2a Rluc or 2b Rluc cells (both with M31 present) harboring a dicistronic NS5A chimeric genotype 2a JFH-1 replicon that encodes a RLuc reporter and either genotype 2a J6 strain NS5A gene or genotype 2b MD2b-1 NS5A gene (based on Los Alamos HCV database isolates, both with M31 present) respectively, were dispensed into 384-well plates. To perform the assay for genotype 3 and 4, HCV 3a RLuc or 4a Rluc cells harboring a dicistronic NS5A chimeric genotype 1b Con1 replicon that encodes a RLuc reporter and either a consensus genotype 3a NS5A gene or genotype 4a NS5A gene (based on Los Alamos HCV database isolates) respectively, were dispensed into 384-well plates. Compounds were re-suspended in DMSO at a concentration of 10 mM and serially diluted in DMSO either manually or using an automated pipeting instrument. Serially diluted compounds were mixed with cell culture media and added to the seeded cells. […] 72 hours later, cells were lysed and Renilla luciferase activity quantified as recommended by the manufacturer (Promega-Madison, Wis.). Non-linear regression was performed to calculate EC50 values.
To determine the antiviral potency (EC50) against resistance mutants, resistance mutations, including M28T, Q30R, Q30H, L31M, and Y93C in genotype 1a NS5A and Y93H in genotype 1b NS5A, were introduced individually into either 1a Rluc or 1b Rluc replicons described above by site directed mutagenesis. Replicon RNA of each resistant mutant was transfected into Huh-7 cured-51 cells and antiviral potency was determined on these transfected cells as described above.

[6] = test system: HCV 2a Rluc cells (NS5A chimeric genotype 2a JFH-1 replicon with genotype 2a J6 strain NS5A gene, M31 present); assay: HCV replicon reporter assay, genotype 2a J6 (M31 present); details: Hepatitis C virus, read-out: 2a J6
Summary of the method: as §1

[7] = test system: HCV 1b RLuc cells (dicistronic genotype 1b Con1 replicon, RLuc reporter); assay: microbe, parasite or virus in culture; details: Hepatitis C virus, read-out: 1b (nM)
Summary of the method: as §1

[8] = test system: HCV 4a Rluc cells (NS5A chimeric genotype 1b Con1 replicon with genotype 4a NS5A gene); assay: microbe, parasite or virus in culture; details: Hepatitis C virus, read-out: 4a
Summary of the method: as §2

[9] = read-out: 3a, genotype 3a NS5A chimeric replicon
[10] = genotype 2a JFH-1 RLuc replicon
[11] = read-out: 3a, genotype 3a replicon
[12] = genotype 1a H77 replicon, RLuc reporter
[13] = read-out: 3a, genotype 3a NS5A chimeric 1b Con1 replicon
[14] = genotype 2a JFH-1 replicon, RLuc reporter

SMILES | EC50 ([1]; genotype 1a H77 RLuc replicon) [pM] | EC50 [2, 9] [pM] | EC50 [3] [pM] | EC50 [4, 10] [pM] | EC50 [5] [pM] | EC50 [6] [pM] | EC50 [7] [nM] | EC50 ([1]; genotype 1a replicon) [pM] | EC50 [8] [pM] | EC50 [2, 11] [pM] | EC50 ([4]; genotype 2a JFH-1 replicon) [pM] | EC50 [1, 12] [pM] | EC50 [2, 13] [pM] | EC50 [4, 14] [pM]
COC(=O)N[C@H](C(=O)N1[C@@H](C)CC[C@H]1c1nc2ccc3cc4c(cc3c2[nH]1)OCc1cc(-c2cnc([C@@H]3C[C@H](C)CN3C(=O)[C@@H](NC(=O)OC)[C@@H](C)OC)[nH]2)ccc1-4)C(C)C [Example 612] | 1 to 999 | 1 to 990 | 1 to 999 | 1 to 999 | 1 to 999 | 1 to 999 | – | – | – | – | – | – | – | –
CC[C@H](C)[C@H](NC(=O)OC)C(=O)N1[C@@H](C)CC[C@H]1c1ncc(-c2ccc3c(c2)COc2cc4c(ccc5nc([C@@H]6C[C@H](COC)CN6C(=O)[C@H](NC(=O)OC)c6ccccc6)[nH]c54)cc2-3)[nH]1 [Example 637] | 1 to 999 | 1 to 990 | 1 to 999 | 1 to 999 | 1 to 999 | 1 to 999 | – | – | – | – | – | – | – | –
COC[C@H]1C[C@@H](c2ncc(-c3ccc4c(c3)COc3cc5c(cc3-4)CCc3nc([C@@H]4CC[C@H](C)N4C(=O)[C@@H](NC(=O)OC)C(C)C)[nH]c3-5)[nH]2)N(C(=O)[C@H](NC(=O)OC)c2ccccc2)C1 [Example 608] | 1 to 999 | – | 1 to 999 | 1 to 999 | 1 to 999 | 1 to 999 | 0.017 | – | – | – | – | – | – | –
COC(=O)N[C@H](C(=O)N1C[C@@H](C)C[C@H]1c1ncc(-c2ccc3c(c2)COc2cc4c(ccc5nc([C@@H]6CC[C@H](C)N6C(=O)[C@@H](NC(=O)OC)C(C)C)[nH]c54)cc2-3)[nH]1)C(C)C [Example 613] | 1 to 999 | 1 to 990 | 1 to 999 | 1 to 999 | 1 to 999 | 1 to 999 | – | – | – | – | – | – | – | –
COC[C@H]1C[C@@H](c2ncc(-c3ccc4c(c3)COc3cc5c(ccc6nc([C@@H]7CC[C@H](C)N7C(=O)[C@@H](NC(=O)OC)C(C)C)[nH]c65)cc3-4)[nH]2)N(C(=O)[C@@H](NC(=O)OC)C(C)C)C1 [Example 600] | 1 to 999 | – | 1 to 999 | 1 to 999 | 1 to 999 | 1 to 999 | 0.007 | – | – | – | – | – | – | –
COC(=O)N[C@H](C(=O)N1CCC[C@H]1c1nc(Cl)c(-c2cc3c4c(c2)OCc2cc(-c5[nH]c([C@@H]6CCCN6C(=O)[C@@H](NC(=O)OC)C(C)C)nc5Cl)cc(c2-4)OC3)[nH]1)C(C)C [Example 384] | – | – | – | – | 1000 to 44000 | 1000 to 44000 | 0.013 | 1 to 999 | 1 to 990 | 1 to 990 | 1 to 999 | – | – | –
COC[C@H]1C[C@@H](c2nc3ccc4cc(-c5ccc6c(ccc7nc([C@@H]8CCCN8C(=O)[C@@H](NC(=O)OC)C(C)C)[nH]c76)c5)ccc4c3[nH]2)N(C(=O)[C@H](N)c2ccccc2)C1 [Example 598] | 1 to 999 | – | 1 to 999 | 1 to 999 | 1 to 999 | 1 to 999 | 0.022 | – | – | – | – | – | – | –
COC[C@H]1C[C@@H](c2nc3ccc4cc(-c5ccc6c(ccc7nc([C@@H]8C[C@H](C)CN8C(=O)[C@@H](NC(=O)OC)C(C)C)[nH]c76)c5)ccc4c3[nH]2)N(C(=O)[C@H](NC(=O)OC)c2ccccc2)C1 [Example 553] | 1 to 999 | 1 to 990 | 1 to 999 | 1 to 999 | – | 1 to 999 | 0.014 | – | 1 to 990 | – | – | – | – | –
COC[C@H]1C[C@@H](c2ncc(-c3cc4c5c(c3)OCc3cc(-c6cnc([C@@H]7C[C@H](COC)CN7C(=O)[C@@H](NC(=O)OC)C(C)C)[nH]6)cc(c3-5)OC4)[nH]2)N(C(=O)[C@@H](NC(=O)OC)C(C)C)C1 [Example 513] | 1 to 999 | 1 to 990 | 1000 to 44000 | 1 to 999 | – | 1000 to 44000 | 0.068 | – | 1 to 990 | – | – | – | – | –
COC[C@H]1C[C@@H](c2nc3ccc4cc(-c5ccc(-c6cnc([C@@H]7CCCN7C(=O)[C@H](N)c7ccccc7)[nH]6)cc5)ccc4c3[nH]2)N(C(=O)[C@@H](NC(=O)OC)C(C)C)C1 [Example 477] | – | – | 1 to 999 | – | – | 1 to 999 | 0.089 | 1 to 999 | 1 to 990 | 1 to 990 | 1 to 999 | – | – | –
COC[C@H]1C[C@@H](c2ncc(-c3ccc(-c4ccc(-c5cnc([C@@H]6C[C@H](SC)CN6C(=O)[C@@H](NC(=O)OC)C(C)C)[nH]5)cc4)cc3)[nH]2)N(C(=O)[C@H](NC(=O)C2CC2)c2ccccc2)C1 [Example 570] | 1 to 999 | 1 to 990 | 1 to 999 | 1 to 999 | – | 1 to 999 | 0.033 | – | 1 to 990 | – | – | – | – | –
CCC(=O)N[C@@H](C(=O)N1CCC[C@H]1c1ncc(-c2ccc3c(c2)COc2cc4c(ccc5nc([C@@H]6CCCN6C(=O)[C@@H](NC(=O)OC)C(C)C)[nH]c54)cc2-3)[nH]1)c1ccccc1 [Example 499] | 1 to 999 | 1 to 990 | 1 to 999 | 1 to 999 | – | 1 to 999 | 0.032 | – | 1 to 990 | – | – | – | – | –
COC(=O)N[C@H](C(=O)N1CCC[C@H]1c1ncc(-c2ccc3c(ccc4cc(-c5cnc([C@@H]6CCCN6C(=O)[C@@H](NC(=O)OC)C(C)C)[nH]5)ccc43)c2)[nH]1)C(C)C [Example 282] | – | – | > 44000 | – | – | > 44000 | 0.007 | – | 1 to 990 | – | – | 1 to 999 | 1 to 990 | 1 to 999
COC(=O)N[C@H](C(=O)N1CCC[C@H]1c1nc2ccc3cc(-c4ccc5c(ccc6nc([C@@H]7C[C@H](SC)CN7C(=O)[C@@H](NC(=O)OC)C(C)C)[nH]c65)c4)ccc3c2[nH]1)C(C)C [Example 515] | 1 to 999 | 1 to 990 | 1000 to 44000 | 1 to 999 | – | 1 to 999 | 0.047 | – | 1 to 990 | – | – | – | – | –
COC(=O)N[C@H](C(=O)N1CC2(CC2)C[C@H]1c1nc2ccc3cc(-c4ccc(-c5cnc([C@@H]6[C@H]7CC[C@H](C7)N6C(=O)[C@@H](NC(=O)OC)C(C)C)[nH]5)cc4)ccc3c2[nH]1)C(C)C [Example 387] | – | – | > 44000 | – | – | > 44000 | 0.009 | 1 to 999 | 1 to 990 | 1 to 990 | 1 to 999 | – | – | –
CC#Cc1cc(-c2cnc([C@@H]3CCCN3C(=O)[C@H](NC(=O)OC)c3ccccc3)[nH]2)ccc1-c1ccc2c(ccc3nc([C@@H]4CCCN4C(=O)[C@@H](NC(=O)OC)C(C)C)[nH]c32)c1 [Example 374] | – | – | 1000 to 44000 | – | – | 1 to 999 | 0.019 | 1 to 999 | 1 to 990 | 1 to 990 | 1 to 999 | – | – | –
COC(=O)N[C@H](C(=O)N1CCC[C@H]1c1ncc(-c2ccc3cc(-c4ccc(-c5cnc([C@@H]6CCCN6C(=O)[C@H](NC(=O)OC)c6ccccc6)[nH]5)cc4)ccc3c2)[nH]1)[C@@H](C)OC(C)F (some centres unmarked) [Example 128] | – | – | > 44000 | – | – | > 44000 | 0.005 | – | 1 to 990 | – | – | 1 to 999 | 1 to 990 | 1 to 999
